Key:
[1] = Single dose, food intake and body weight in Sprague-Dawley rats; assay type: in vivo, rat; design: body weight change: unit not given here; settings: single dose 0.3 nmol/kg s.c. (Dulaglutide); for absolute body weight: in g (unit assumed)
Description: Compound 1 was evaluated for its ability to reduce foot intake and body weight in Sprague-Dawley after a single dose. The animals were obtained from Charles River Labs (Wilmington, Mass.) at 200-225 g body weight and used within one week of delivery. They were housed one per cage on alpha dry bedding and a plastic tube for enrichment in a temperature-controlled room with 12-hour light/dark cycle. […] Animal weights were taken and recorded for each rat prior to dosing.
Body weights and food intake were measured 1, 2 and 3 days after dosing and the percentages of weight loss and reduction in food intake were calculated. […] All data are presented as the mean±SEM (Tables 18-20).

[2] = Weight loss in diet-induced obese mice: chronic dosing; assay type: in vivo, mouse; settings: for body weight: 0.3 nmol/kg s.c. every day
Description: (§1) Compound 1 was evaluated for its ability to reduce foot intake and body weight and improve glucose homeostasis on repeat dosing in male DIO C57Bl/6 mice over a period of 8 days. Male DIO C57BL/6N mice (20 weeks of age, 14 weeks on high fat diet) were obtained from Taconic Laboratory. […] Animals were acclimated to the facility for at least one week prior to the start of the experiment.
(§2) The day prior to dosing, mice were grouped based on individual body weights. At 3:00-4:00 pm for each of the next 8 days, animals and food intake were weighed. […] After 8 days, mice are fasted for 5 hours and then given a 2 g/kg bolus of glucose orally at t=0. At t=0, 30, 60, 90, and 120 minutes post glucose challenge blood glucose is measured and at t=0, 30, and 90 minutes blood in drawn to measure plasma insulin. […] All data are presented as the mean±SEM (FIG. 7, FIG. 8, and Tables 8-11).

[3] = OGTT after 8 days of treatment in DIO mice; assay type: in vivo, mouse; settings: 0.3 nmol/kg every day
Description: as §1, §2

Dulaglutide
body weight change ([1]; Day 0): 0.0 ± 0.0
daily food intake ([1]; Day 0): 26.6 ± 0.8
absolute body weight ([1]; Day 0): 270.3 ± 3.0
body weight change ([1]; Day 1): 10.6 ± 1.6
daily food intake ([1]; Day 1): 27.3 ± 1.2
absolute body weight ([1]; Day 1): 280.8 ± 4.2
body weight change ([1]; Day 2): 22.5 ± 0.8
daily food intake ([1]; Day 2): 30.0 ± 0.7
absolute body weight ([1]; Day 2): 292.47 ± 3.6
body weight change ([1]; Day 3): 28.7 ± 0.6
daily food intake ([1]; Day 3): 30.1 ± 0.7
absolute body weight ([1]; Day 3): 299.0 ± 3.3
body weight change ([1]; Day −1): −6.3 ± 0.8
absolute body weight ([1]; Day −1): 264.0 ± 3.1
Total Food Consumption ([1]; over three days): 87.4 ± 2.0
fed Blood Glucose ([2]; 0.3 nmol/kg every day, after 8 days of treatment): 114 ± 13 mg/dL
body weight ([2]; Day 0): 45.9 ± 0.6 g
body weight ([2]; Day 1): 44.1 ± 0.6 g
body weight ([2]; Day 2): 42.2 ± 0.6 g
body weight ([2]; Day 3): 40.6 ± 0.6 g
body weight ([2]; Day 4): 39.3 ± 0.6 g
body weight ([2]; Day 5): 38.1 ± 0.7 g
body weight ([2]; Day 6): 37.1 ± 0.8 g
body weight ([2]; Day 7): 36.4 ± 1.0 g
body weight ([2]; Day 8): 36.5 ± 1.1 g
body weight ([2]; Day −1): 46.3 ± 0.6 g
blood glucose (mg/dL) during OGTT ([3]; 0 min after glucose challenge): 76 ± 9 mg/dL
insulin (ng/mL) during OGTT ([3]; 0 min after glucose challenge): 0.6 ± 0.1 ng/mL
blood glucose (mg/dL) during OGTT ([3]; 30 min after glucose challenge): 151 ± 14 mg/dL
insulin (ng/mL) during OGTT ([3]; 30 min after glucose challenge): 1.7 ± 0.2 ng/mL
blood glucose (mg/dL) during OGTT ([3]; 60 min after glucose challenge): 174 ± 17 mg/dL
blood glucose (mg/dL) during OGTT ([3]; 90 min after glucose challenge): 104 ± 10 mg/dL
insulin (ng/mL) during OGTT ([3]; 90 min after glucose challenge): 0.7 ± 0.2 ng/mL
blood glucose (mg/dL) during OGTT ([3]; 120 min after glucose challenge): 119 ± 9 mg/dL
glucose Delta AUC (mg/dl/120 min) ([3]; OGTT): 6668 ± 1846 mg/dl/120 min
glucose Total AUC (mg/dl/120 min) ([3]; OGTT): 15758 ± 1054 mg/dl/120 min

Source: patent US10968265B2, “Antibody-coupled cyclic peptide tyrosine tyrosine compounds as modulators of neuropeptide Y receptors” (Janssen Pharmaceutica NV, priority 2016, dated 2021)
